Patent publication US12559529B2, “NPY2 receptor agonists” (Boehringer Ingelheim International GmbH, priority 2019, dated 2026)
*1 amine or outer side, *2 acyl side, *3 side chain or, on linkers, in order; H or OH if unused. Where a SMILES comes first, the peptide text is derived from it. Side-chain parts run from the residue outwards. The star is where a group is joined. C18 diacid = O=C(O)CCCCCCCCCCCCCCCCC(=O)*; γGlu = O=C(O)[C@H](CCC(=O)[*:2])N[*:1]; Isovaleryl = CC(C)CC(=O)*; AEEA = NCCOCCOCC(=O)O

molecular target: T1, Human Neuropeptide Y2 Receptor (Homo sapiens, UniProt P49146); assay: Radioligand binding competition assay (RLB); conditions: Table 3; human 125I-PYY (1-36) 0.02 nM, Y2 receptor membranes; read-out: Ki
T1 construct: purchased CHEMICON HTS066M
T1 sequence (P49146 1-381): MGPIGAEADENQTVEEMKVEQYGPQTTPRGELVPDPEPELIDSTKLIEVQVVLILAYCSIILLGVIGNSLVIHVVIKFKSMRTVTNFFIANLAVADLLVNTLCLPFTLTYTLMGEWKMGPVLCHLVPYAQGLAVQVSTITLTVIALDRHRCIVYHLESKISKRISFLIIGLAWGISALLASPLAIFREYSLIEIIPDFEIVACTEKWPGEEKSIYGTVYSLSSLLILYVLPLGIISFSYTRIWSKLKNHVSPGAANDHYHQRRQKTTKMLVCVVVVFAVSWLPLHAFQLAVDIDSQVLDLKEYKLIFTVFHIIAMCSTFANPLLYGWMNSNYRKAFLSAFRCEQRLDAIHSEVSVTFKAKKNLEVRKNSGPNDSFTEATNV
Summary of the method: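 Peptide dilutions made in pH 7.4 HEPES assay buffer with 0.2% ovalbumin; human Y2 receptor membranes added at 0.5 μg protein/well; plates shaken 2 h at room temperature; reaction stopped by vacuum filtration onto PEI-treated GF/C filters with ice-cold high-salt washes; radioactivity counted by scintillation.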

Compound | Ki [nM]
CC(C)CC(=O)N[C@@H](C)C(=O)N1CCC[C@H]1C(=O)N[C@@H](CCC(=O)O)C(=O)N[C@@H](CCCCNC(=O)COCCOCCNC(=O)COCCOCCNC(=O)CC[C@H](NC(=O)CCCCCCCCCCCCCCCCC(=O)O)C(=O)O)C(=O)N1CCC[C@H]1C(=O)N[C@@H](CCC(=O)O)C(=O)N[C@@H](CCC(=O)O)C(=O)N[C@@H](CCC(=O)O)C(=O)N[C@@H](C)C(=O)N[C@@H](CO)C(=O)N1CCC[C@H]1C(=O)N[C@@H](CCC(=O)O)C(=O)N[C@@H](CCC(=O)O)C(=O)N[C@H](C(=O)N[C@@H](CCC(N)=O)C(=O)N[C@@H](CCCNC(=N)N)C(=O)N[C@@H](Cc1ccc(O)cc1)C(=O)N[C@@H](Cc1ccc(O)cc1)C(=O)N[C@H](C(=O)N[C@@H](CO)C(=O)N[C@@H](CC(C)C)C(=O)N[C@@H](CCCNC(=N)N)C(=O)N[C@@H](Cc1c[nH]cn1)C(=O)N[C@@H](Cc1ccc(O)cc1)C(=O)N[C@@H](Cc1ccc(O)cc1)C(=O)N[C@@H](CC(N)=O)C(=O)N[C@@H](Cc1c[nH]c2ccccc12)C(=O)N[C@@H](CC(C)C)C(=O)N[C@H](C(=O)N[C@@H](CCCNC(=N)N)C(=O)N[C@@H](CCC(N)=O)C(=O)N[C@@H](CCCNC(=N)N)C(=O)N[C@@H](Cc1ccc(O)cc1)C(N)=O)[C@@H](C)O)C(C)C)C(C)C [Compound 204, N{alpha-4}-(3-methylbutanoyl)-N{epsilon-7}-[2-(2-{2-[2-(2-{2-[(4S)-4-carboxy-4-(17-carboxyheptadecanamido)butanamido]ethoxy}ethoxy)acetamido]ethoxy}ethoxy)acetamido]-[4A,7K,9E,11E,17V,18Q,22V,28Y,30W,31L]hPYY (4-36)] (Isovaleryl-APEK([AEEA-AEEA-γGlu-C18 diacid])PEEEASPEEVQRYYVSLRHYYNWLTRQRY-NH2) | 3.35
CC(C)CC(=O)N[C@@H](C)C(=O)N1CCC[C@H]1C(=O)N[C@@H](C)C(=O)N[C@@H](CCCCNC(=O)COCCOCCNC(=O)COCCOCCNC(=O)CC[C@H](NC(=O)CCCCCCCCCCCCCCCCC(=O)O)C(=O)O)C(=O)N1CCC[C@H]1C(=O)N[C@@H](CCC(=O)O)C(=O)N[C@@H](C)C(=O)N[C@@H](CC(=O)O)C(=O)N[C@@H](C)C(=O)N[C@@H](CCC(=O)O)C(=O)N1CCC[C@H]1C(=O)N[C@@H](CCC(=O)O)C(=O)N[C@@H](CCC(=O)O)C(=O)N[C@@H](CC(C)C)C(=O)N[C@@H](CCC(N)=O)C(=O)N[C@@H](CCCNC(=N)N)C(=O)N[C@@H](Cc1ccc(O)cc1)C(=O)N[C@@H](Cc1ccc(O)cc1)C(=O)N[C@H](C(=O)N[C@@H](CO)C(=O)N[C@@H](CC(C)C)C(=O)N[C@@H](CCCNC(=N)N)C(=O)N[C@@H](Cc1c[nH]cn1)C(=O)N[C@@H](Cc1ccc(O)cc1)C(=O)N[C@@H](Cc1ccc(O)cc1)C(=O)N[C@@H](CC(N)=O)C(=O)N[C@@H](Cc1c[nH]c2ccccc12)C(=O)N[C@@H](CC(C)C)C(=O)N[C@H](C(=O)N[C@@H](CCCNC(=N)N)C(=O)N[C@@H](CCC(N)=O)C(=O)N[C@@H](CCCNC(=N)N)C(=O)N[C@@H](Cc1ccc(O)cc1)C(N)=O)[C@@H](C)O)C(C)C [Compound 207, N{alpha-4}-(3-methylbutanoyl)-N{epsilon-7}-[2-(2-{2-[2-(2-{2-[(4S)-4-carboxy-4-(17-carboxyheptadecanamido)butanamido]ethoxy}ethoxy)acetamido]ethoxy}ethoxy)acetamido]-[4A,6A,7K,9E,10A,13E,18Q,22V,28Y,30W,31L]hPYY (4-36)] | 1.07
CC[C@H](C)[C@H](NC(=O)[C@H](CCCCNC(=O)COCCOCCNC(=O)COCCOCCNC(=O)CC[C@H](NC(=O)CCCCCCCCCCCCCCCCC(=O)O)C(=O)O)NC(=O)[C@H](CCC(=O)O)NC(=O)[C@@H]1CCCN1C(=O)[C@H](C)NC(=O)CC(C)C)C(=O)N[C@@H](CCC(=O)O)C(=O)N[C@@H](CCC(=O)O)C(=O)N[C@@H](CCC(=O)O)C(=O)N[C@@H](C)C(=O)N[C@@H](CO)C(=O)N1CCC[C@H]1C(=O)N[C@@H](CCC(=O)O)C(=O)N[C@@H](CCC(=O)O)C(=O)N[C@@H](CC(C)C)C(=O)N[C@@H](CCC(N)=O)C(=O)N[C@@H](CCCNC(=N)N)C(=O)N[C@@H](Cc1ccc(O)cc1)C(=O)N[C@@H](Cc1ccc(O)cc1)C(=O)N[C@H](C(=O)N[C@@H](CO)C(=O)N[C@@H](CC(C)C)C(=O)N[C@@H](CCCNC(=N)N)C(=O)N[C@@H](Cc1c[nH]cn1)C(=O)N[C@@H](Cc1ccc(O)cc1)C(=O)N[C@@H](Cc1ccc(O)cc1)C(=O)N[C@@H](CC(N)=O)C(=O)N[C@@H](Cc1c[nH]c2ccccc12)C(=O)N[C@@H](CC(C)C)C(=O)N[C@H](C(=O)N[C@@H](CCCNC(=N)N)C(=O)N[C@@H](CCC(N)=O)C(=O)N[C@@H](CCCNC(=N)N)C(=O)N[C@@H](Cc1ccc(O)cc1)C(N)=O)[C@@H](C)O)C(C)C [Compound 210, N{alpha-4}-(3-methylbutanoyl)-N{epsilon-7}-[2-(2-{2-[2-(2-{2-[(4S)-4-carboxy-4-(17-carboxyheptadecanamido)butanamido]ethoxy}ethoxy)acetamido]ethoxy}ethoxy)acetamido]-[4A,7K,8I,9E,11E,18Q,22V,28Y,30W,31L]hPYY (4-36)] (Isovaleryl-APEK([AEEA-AEEA-γGlu-C18 diacid])IEEEASPEELQRYYVSLRHYYNWLTRQRY-NH2) | 10.5
CC(C)CC(=O)N[C@@H](C)C(=O)N1CCC[C@H]1C(=O)N[C@@H](CCC(=O)O)C(=O)N[C@@H](CCCCNC(=O)COCCOCCNC(=O)COCCOCCNC(=O)CC[C@H](NC(=O)CCCCCCCCCCCCCCCCC(=O)O)C(=O)O)C(=O)N1CCC[C@H]1C(=O)N[C@@H](CCC(=O)O)C(=O)N[C@@H](CCC(=O)O)C(=O)N[C@@H](CC(=O)O)C(=O)N[C@H](C(=O)N[C@@H](C)C(=O)N1CCC[C@H]1C(=O)N[C@@H](CCC(=O)O)C(=O)N[C@@H](CCC(=O)O)C(=O)N[C@@H](CC(C)C)C(=O)N[C@@H](CCC(N)=O)C(=O)N[C@@H](CCCNC(=N)N)C(=O)N[C@@H](Cc1ccc(O)cc1)C(=O)N[C@@H](Cc1ccc(O)cc1)C(=O)N[C@H](C(=O)N[C@@H](CO)C(=O)N[C@@H](CC(C)C)C(=O)N[C@@H](CCCNC(=N)N)C(=O)N[C@@H](Cc1c[nH]cn1)C(=O)N[C@@H](Cc1ccc(O)cc1)C(=O)N[C@@H](Cc1ccc(O)cc1)C(=O)N[C@@H](CC(N)=O)C(=O)N[C@@H](Cc1c[nH]c2ccccc12)C(=O)N[C@@H](CC(C)C)C(=O)N[C@H](C(=O)N[C@@H](CCCNC(=N)N)C(=O)N[C@@H](CCC(N)=O)C(=O)N[C@@H](CCCNC(=N)N)C(=O)N[C@@H](Cc1ccc(O)cc1)C(N)=O)[C@@H](C)O)C(C)C)[C@@H](C)O [Compound 212, N{alpha-4}-(3-methylbutanoyl)-N{epsilon-7}-[2-(2-{2-[2-(2-{2-[(4S)-4-carboxy-4-(17-carboxyheptadecanamido)butanamido]ethoxy}ethoxy)acetamido]ethoxy}ethoxy)acetamido]-[4A,7K,9E,12T,13A,18Q,22V,28Y,30W,31L]hPYY (4-36)] | 20.3
CC(C)CC(=O)N[C@@H](C)C(=O)N1CCC[C@H]1C(=O)N[C@@H](CCC(=O)O)C(=O)N[C@@H](CCCCNC(=O)COCCOCCNC(=O)COCCOCCNC(=O)CC[C@H](NC(=O)CCCCCCCCCCCCCCCCC(=O)O)C(=O)O)C(=O)N1CCC[C@H]1C(=O)N[C@@H](CCC(=O)O)C(=O)N[C@@H](CCC(=O)O)C(=O)N[C@@H](CCC(=O)O)C(=O)N[C@H](C(=O)N[C@@H](CO)C(=O)N1CCC[C@H]1C(=O)N[C@@H](CCC(=O)O)C(=O)N[C@@H](CCC(=O)O)C(=O)N[C@@H](CC(C)C)C(=O)N[C@@H](CCC(N)=O)C(=O)N[C@@H](CCCNC(=N)N)C(=O)N[C@@H](Cc1ccc(O)cc1)C(=O)N[C@@H](Cc1ccc(O)cc1)C(=O)N[C@H](C(=O)N[C@@H](CO)C(=O)N[C@@H](CC(C)C)C(=O)N[C@@H](CCCNC(=N)N)C(=O)N[C@@H](Cc1c[nH]cn1)C(=O)N[C@@H](Cc1ccc(O)cc1)C(=O)N[C@@H](Cc1ccc(O)cc1)C(=O)N[C@@H](CC(N)=O)C(=O)N[C@@H](Cc1c[nH]c2ccccc12)C(=O)N[C@@H](CC(C)C)C(=O)N[C@H](C(=O)N[C@@H](CCCNC(=N)N)C(=O)N[C@@H](CCC(N)=O)C(=O)N[C@@H](CCCNC(=N)N)C(=O)N[C@@H](Cc1ccc(O)cc1)C(N)=O)[C@@H](C)O)C(C)C)[C@@H](C)O [Compound 213, N{alpha-4}-(3-methylbutanoyl)-N{epsilon-7}-[2-(2-{2-[2-(2-{2-[(4S)-4-carboxy-4-(17-carboxyheptadecanamido)butanamido]ethoxy}ethoxy)acetamido]ethoxy}ethoxy)acetamido]-[4A,7K,9E,11E,12T,18Q,22V,28Y,30W,31L]hPYY (4-36)] (Isovaleryl-APEK([AEEA-AEEA-γGlu-C18 diacid])PEEETSPEELQRYYVSLRHYYNWLTRQRY-NH2) | 6.54
